{"source": "patent US20100249083A1", "about": "“16,17-CARBOCYCLIC CONDENSED STEROID COMPOUNDS HAVING SELECTIVE ESTROGENIC ACTIVITY” (N.V. Organon, priority 2000, published 2010)", "key": {"[1]": {"biological_target": "T1, human estrogen receptor α (hERα) (Homo sapiens, UniProt P03372)", "T1 sequence (P03372 1-595)": "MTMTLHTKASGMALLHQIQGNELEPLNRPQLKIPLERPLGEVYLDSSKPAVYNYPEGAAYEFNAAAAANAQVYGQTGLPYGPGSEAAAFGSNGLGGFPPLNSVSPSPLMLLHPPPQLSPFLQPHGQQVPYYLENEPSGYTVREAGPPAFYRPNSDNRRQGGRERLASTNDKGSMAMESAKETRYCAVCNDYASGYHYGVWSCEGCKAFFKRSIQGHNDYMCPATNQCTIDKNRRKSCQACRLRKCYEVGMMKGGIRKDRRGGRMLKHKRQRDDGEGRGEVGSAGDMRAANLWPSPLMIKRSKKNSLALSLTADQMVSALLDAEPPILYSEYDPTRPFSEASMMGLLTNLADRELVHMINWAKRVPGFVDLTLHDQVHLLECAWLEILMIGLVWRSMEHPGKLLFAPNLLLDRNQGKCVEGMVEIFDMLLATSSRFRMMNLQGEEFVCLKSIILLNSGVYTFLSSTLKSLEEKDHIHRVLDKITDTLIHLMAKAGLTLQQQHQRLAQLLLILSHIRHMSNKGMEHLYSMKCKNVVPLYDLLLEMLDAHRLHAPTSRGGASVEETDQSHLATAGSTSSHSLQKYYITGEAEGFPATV", "experiment": "Estrogenic agonistic transactivation assay, CHO cells with rat oxytocin promoter and luciferase reporter", "type": "cell-based", "set-up": "expressed in transfected cells; host or cells: CHO cells with rat oxytocin promoter and luciferase reporter", "conditions": "compared with estradiol; first value of Erα/Erβ pair", "description": "(§1) The estrogenic agonistic transactivation (potency ratio) of a test compound to stimulate the transactivation of the enzyme luciferase mediated via the estrogen receptors hERα or hERβ is compared with the standard estrogen estradiol. The antiestrogenic activity (potency ratio) of a test compound to inhibit the transactivation of the enzyme luciferase mediated via the estrogen receptors hERα or hERβ by the (17β)-estradiol is compared with the standard ICI 164.384 (=(7α,17β)-N-butyl-3,17-dihydroxy-N-methylestra-1,3,5(10)-triene-7-undecanamide)."}, "[2]": {"biological_target": "T2, human estrogen receptor β (hERβ) (Homo sapiens, UniProt Q92731)", "T2 sequence (Q92731 whole entry)": "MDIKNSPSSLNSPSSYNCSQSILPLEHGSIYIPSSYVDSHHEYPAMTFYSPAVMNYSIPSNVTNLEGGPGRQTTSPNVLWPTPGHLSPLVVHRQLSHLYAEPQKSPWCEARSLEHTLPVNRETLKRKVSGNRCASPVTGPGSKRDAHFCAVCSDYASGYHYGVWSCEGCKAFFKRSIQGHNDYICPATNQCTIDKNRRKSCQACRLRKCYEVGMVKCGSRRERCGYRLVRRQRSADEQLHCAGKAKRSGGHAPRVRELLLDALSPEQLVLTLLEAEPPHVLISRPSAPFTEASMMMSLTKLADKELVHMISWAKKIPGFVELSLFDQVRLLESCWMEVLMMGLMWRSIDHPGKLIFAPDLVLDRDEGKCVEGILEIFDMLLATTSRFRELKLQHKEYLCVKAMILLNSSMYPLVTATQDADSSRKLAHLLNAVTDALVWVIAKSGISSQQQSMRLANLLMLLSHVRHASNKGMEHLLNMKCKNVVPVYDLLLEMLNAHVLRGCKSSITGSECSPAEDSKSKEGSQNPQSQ", "experiment": "Estrogenic agonistic transactivation assay, CHO cells with rat oxytocin promoter and luciferase reporter", "type": "cell-based", "set-up": "expressed in transfected cells; host or cells: CHO cells with rat oxytocin promoter and luciferase reporter", "conditions": "compared with estradiol; second value of Erα/Erβ pair", "description": "as §1"}, "[3]": {"system": "ovariectomised (OVX) rats", "experiment": "Test for prevention of ovariectomy-induced bone loss in rats (anti-osteoporosis test)", "type": "in vivo, rat", "conditions": "oral, 4 weeks, trabecular bone mineral density difference 40-60%", "description": "Ovariectomy of rats induces bone loss, which is due to estrogen deficiency. Administration of estrogenic compounds prevents this effect. The test is used to evaluate a compound for anti-osteoporotic activity in ovariectomised (OVX) rats. The effect on bone mass can be evaluated by peripheral Quantitative Computed Tomography (pQCT), or by quantitative analysis of X-ray pictures. Plasma osteocalcin and urinary deoxypyridinoline, calcium and phosphate gives information on bone metabolism. Increase of uterine weight and decrease of body and thymus weight reflect estrogenic effect.\nMature virgin 225-250 g female Wistar rats. Strain: Hsd/Cpd:Wu, SPF-bred by Harlan, CPB, Zeist, The Netherlands.\nOn day 1 of the experiment the rats are weighed and distributed over the cages in order of bodyweight, whereby the rat with the smallest bodyweight is placed in the first cage and the heaviest rat in the final cage. Treatments are randomised over the rats.\nSham-operation and ovariectomy are performed under ether anaesthesia. After recovery from the anaesthesia, within 24 h, vehicle, reference compound or test compound is administered once or twice daily for 4 weeks. […] Trabecular bone mineral density of the metaphyseal part of the femur (FBMDDIS mg/cm^3) is measured with a pQCT (peripheral Quantitative Computed Tomography machine; XCT 960A, Stratec, Birkenfeld, Germany). […]"}, "[4]": {"biological_target": "T2, human estrogen receptor β (hERβ)", "conditions": "compared with (17β)-estradiol; second value of Erα/Erβ pair", "procedure": "(§2) Compounds are tested for their estrogen receptor activity in a binding assay and in a transactivation assay using the human estrogen receptor α or β.\n(§3) Competitive binding to cytoplasmic human estrogen receptor α or β from recombinant Chinese hamster ovary (CHO) cells is used to estimate the relative binding affinity (═RBA) potency ratio) of a test compound as compared with (17β)-estradiol (E2) for estrogen receptors α or β present in the cytosol of recombinant CHO cells, stably transfected with the human estrogen receptor α (hERα) or β receptor (hERβ)."}, "[5]": {"biological_target": "T1, human estrogen receptor α (hERα)", "conditions": "compared with (17β)-estradiol; first value of Erα/Erβ pair", "procedure": "as §2, §3"}, "[6]": {"experiment": "Allen Doisy test for estrogenic activity in vivo", "description": "In vivo estrogenic activity was determined by means of the Allen Doisy test, described in F. Allen, L. A. Doisy, J. Amer. Med. Assoc., 81, 819-821 (1923)"}}, "data": [{"compound": "CCCC1Cc2cc(O)ccc2C2CCC3(C)C(CC4CCCCC43O)C12", "note": "(stereo not drawn) [(7α,16β,17α)-7-propyl-16,24-cyclo-19,21-dinorchola-1,3,5(10)-triene-3,17-diol]", "values": [{"measurement": "Transactivation Erα (agonist potency ratio)", "setting": "[1]", "result": 0.3}, {"measurement": "Transactivation Erβ (agonist potency ratio)", "setting": "[2]", "result": "< 0.1"}, {"measurement": "Osteoporosis test, minimal active dose (MAD)", "setting": "[3]", "result": 0.19, "unit": "mg/kg"}, {"measurement": "Binding-assay Erβ (relative binding affinity, potency ratio)", "setting": "[4]", "result": 7}, {"measurement": "Binding-assay Erα (relative binding affinity, potency ratio)", "setting": "[5]", "result": 15}, {"measurement": "Allen Doisy test, active dose", "setting": "[6]; oral", "result": 0.125, "unit": "mg/kg"}, {"measurement": "Allen Doisy test, active dose", "setting": "[6]; sc", "result": 0.024, "unit": "mg/kg"}]}, {"compound": "CCC[C@@H]1Cc2cc(O)ccc2C2CC[C@@]3(C)C(C[C@H]4CC[C@H](O)C[C@]43O)C21", "note": "(stereo partly drawn) [E, (7α,16β,17 α,22S)-7-propyl-16,24-cyclo-19,21-dinorchola-1,3,5(10)-triene-3,17,22-triol]", "values": [{"measurement": "Osteoporosis test, minimal active dose (MAD)", "setting": "[3]", "result": 0.03, "unit": "mg/kg"}, {"measurement": "Allen Doisy test, active dose", "setting": "[6]; oral", "result": 0.03, "unit": "mg/kg"}, {"measurement": "Allen Doisy test, active dose", "setting": "[6]; sc", "result": 0.005, "unit": "mg/kg"}]}]}
